In US20220380342A1, “BIPHENYL DERIVATIVES FOR BLOCKING PD-1/PD-L1 INTERACTION, PREPARATION METHOD THEREFOR AND USE THEREOF” (Abbisko Therapeutics Co., Ltd., priority 2019, published 2022):

How the values were obtained:
[1] = target: T1, interaction between PD-1 and PD-L1 expressed on cell surfaces (Jurkat/NF-κB-luc/PD1 cells cocultured with Raji-PD-L1 cells) (Homo sapiens, UniProt Q9NZQ7); assay: Jurkat reporter gene cellular assay; type: cell-based; conditions: OKT3 1 μg/mL stimulation, 6 hrs, activation fold vs DMSO
T1 construct: expressed in transfected cells; host or cells: Raji cells (PD-L1); Jurkat cells (PD-1, NF-κB-luc reporter)
Method: The effect of compounds of the examples of the present invention on the interaction between PD-1 and PD-L1 expressed on cell surfaces, and the related influence on T cell functions, were determined by a Jurkat reporter gene cellular assay.
Briefly, the reporter gene plasmid of NF-κB-luc and the plasmid of human PD-1 were transfected into Jurkat cells to establish a stably transfected cell line capable of stably expressing both PD-1 and NF-κB-Luc reporter genes; the expression level of PD-1 on the cell surface was confirmed by flow cytometry; and the expression of the reporter gene was confirmed via the response of the reporter gene stimulated by OKT-3 and Raji cells.
In addition, the plasmid of human PD-L1 was transfected into Raji cells to obtain a cell line capable of stably expressing PD-L1. Jurkat/NF-κB-luc/PD1 cells and Raji-PD-L1 cells were then cocultured and stimulated with OKT-3. On this basis, the compounds were added, and the enhancement of the signal pathway of T cell activation by the inhibitory effect of the compounds on the interaction between PD-1 and PD-L1 was evaluated by readings of reporter gene responses. The specific experimental process was as follows:
1) 30 μL of compound or antibody solution was added to each well of a white 96-well plate (Corning, 3610) at different diluted concentrations, and 10 μL of OKT3 (Biolegend, 317326) was then added (the final concentration of OKT3: 1 μg/mL);
2) 20 μL of Raji-PD-L1 cell suspension was added to each well with 5*10^4 cells for each well, and was incubated in an incubator for 20 min;
3) 20 μL of Jurkat/NF-Kb-luc/PD-1 cell suspension was added to each well with 5*10^4 cells for each well, and was well mixed, and 6 hrs later, Bright-glo (Promega, E2620) was applied and plates were read on Envision;
4) The reading of each well treated with the compound was compared with the reading of each well treated with DMSO to obtain the activation fold of the compound; and
5) EC50 values of compounds of the examples of the present invention were determined by non-linear regression analysis of activation folds at different compound concentrations.

[2] = target: T2, interaction between PD-1 and PD-L1 (Homo sapiens, UniProt Q9NZQ7); assay: PD1-PDL1 HTRF binding activity test; conditions: Cisbio PD-1/PD-L1 binding assay kit; percent inhibition vs DMSO
T2 construct: purchased Cisbio 64ICP01PEG or 64ICP01PEH
Method: The effect of compounds of the examples of the present invention on the interaction between PD-1 and PD-L1 was determined by the PD-1/PD-L1 binding assay kit from Cisbio (#64ICP01PEG or 64ICP01PEH). The detailed experimental process was as follows:
1) Pre-diluted compound solution, 4 μL of Tag1-PD-L1 and 4 μL of Tag2-PD1 were added to each well of a 384-well plate;
2) After the mixture was incubated at room temperature for 15 min, 5 μL of anti-Tag1-Eu3+ antibody and 5 μL of anti-Tag2-XL665 antibody were then added;
3) After incubated for 2 hrs at room temperature or overnight at 4° C., plates were read on Envision of Perkin Elmer; and readings at 665 nm and 620 nm were recorded, and the ratio of the two readings was taken as a reading for each well;
4) The reading of each well after compound treatment was compared with the reading of DMSO treated wells to obtain the percent inhibition of the compound; and
5) IC50 values of compounds of the examples of the present invention were determined by non-linear regression analysis of percent inhibition at different compound concentrations.

T1 sequence (Q9NZQ7 19-290): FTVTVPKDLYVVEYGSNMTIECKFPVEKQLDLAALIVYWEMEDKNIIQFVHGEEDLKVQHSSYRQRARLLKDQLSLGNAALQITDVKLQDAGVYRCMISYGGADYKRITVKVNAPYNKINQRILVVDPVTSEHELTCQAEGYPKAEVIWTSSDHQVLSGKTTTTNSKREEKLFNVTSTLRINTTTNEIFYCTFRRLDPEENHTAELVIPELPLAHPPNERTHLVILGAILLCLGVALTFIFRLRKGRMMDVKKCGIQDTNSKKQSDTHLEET
T2 sequence (Q9NZQ7 19-238 limits assumed): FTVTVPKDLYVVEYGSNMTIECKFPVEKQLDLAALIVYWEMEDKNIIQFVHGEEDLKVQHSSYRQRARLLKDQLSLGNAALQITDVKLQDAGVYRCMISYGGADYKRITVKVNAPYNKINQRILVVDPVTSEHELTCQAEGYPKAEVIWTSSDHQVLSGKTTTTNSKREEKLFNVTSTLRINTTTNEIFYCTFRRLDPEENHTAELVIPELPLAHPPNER

Row | SMILES | EC50 [1] | IC50 [2]
1 | Cc1c(NC(=O)c2cc(C3CC3)c(CN[C@@](C)(CO)C(=O)O)cn2)cccc1-c1cccc(NC(=O)c2cc(C3CC3)c(CN[C@@](C)(CO)C(=O)O)cn2)c1C [Example 67, (2S,2′S)-2,2′-((((((2,2′-dimethyl-[1,1′-biphenyl]-3,3′-diyl)bis(azanediyl))bis(carbonyl))bis(4-cyclopropylpyridine-6,3-diyl))bis(methylene))bis(azanediyl))bis(3-hydroxy-2-methylpropanoic acid)] | 19.7 nM | 0.61 nM
2 | CCOC(=O)[C@@H](CO)NCc1cnc(C(=O)Nc2cccc(-c3cccc(NC(=O)c4cc(C5CC5)c(CN[C@@H](C)CO)cn4)c3C)c2C)cc1C1CC1 [Example 39-1, Ethyl ((4-cyclopropyl-6-((3′-(4-cyclopropyl-5-((((S)-1-hydroxypropan-2-yl)amino)methyl)picolinamido)-2,2′-dimethyl-[1,1′-biphenyl]-3-yl)carbamoyl)pyridin-3-yl)methyl)-D-serinate] | 264 nM | 3.22 nM
3 | Cc1c(NC(=O)c2cc(C3CC3)c(CNC3COC3)cn2)cccc1-c1cccc(NC(=O)c2cc(C3CC3)c(CN3CCCC[C@H]3C(=O)O)cn2)c1C [Example 23, (S)-1-((4-cyclopropyl-6-((3′-(4-cyclopropyl-5-((oxetan-3-ylamino)methyl)picolinamido)-2,2′-dimethyl-[1,1′-biphenyl]-3-yl)carbamoyl)pyridin-3-yl)methyl)piperidine-2-carboxylic acid] | 77.5 nM | 2.57 nM
4 | Cc1c(NC(=O)c2cc(C3CC3)c(CN3CCC[C@@H]3CO)cn2)cccc1-c1cccc(NC(=O)c2cc(C3CC3)c(CN3CCCC[C@H]3C(=O)O)cn2)c1C [Example 28, (S)-1-((4-cyclopropyl-6-((3′-(4-cyclopropyl-5-(((R)-2-(hydroxymethyl)pyrolidin-1-yl)methyl)picolinamido)-2, 2′-dimethyl-[1,1′-biphenyl]-3-yl)carbamoyl)pyridin-3-yl)methyl)piperidine-2-carboxylic acid] | 35.3 nM | 4.17 nM
5 | Cc1c(NC(=O)c2cc(C3CC3)c(CN3CCCC3)cn2)cccc1-c1cccc(NC(=O)c2cc(C3CC3)c(CN3CCCC[C@H]3C(=O)O)cn2)c1C [Example 12] | 10.6 nM | 1.02 nM
6 | CCOC(=O)[C@H](CO)NCc1cnc(C(=O)Nc2cccc(-c3cccc(NC(=O)c4cc(C5CC5)c(CNCCO)cn4)c3C)c2C)cc1C1CC1 [Example 37-1, Ethyl ((4-cyclopropyl-6-((3′-(4-cyclopropyl-5-(((2-hydroxyethyl)amino)methyl)picolinamido)-2,2′-dimethyl-[1,1′-biphenyl]-3-yl)carbamoyl)pyridin-3-yl)methyl)-L-serinate] | 265 nM | 5.58 nM
7 | CCNCc1cnc(C(=O)Nc2cccc(-c3cccc(NC(=O)c4cc(C5CC5)c(CN5CCCC[C@H]5C(=O)O)cn4)c3C)c2C)cc1C1CC1 [Example 8, (S)-1-((4-cyclopropyl-6-((3′-(4-cyclopropyl-5-((ethylamino)methyl)picolinamido)-2,2′-dimethyl-[1,1′-biphenyl]-3-yl)carbamoyl)pyridin-3-yl)methyl) piperidine-2-carboxylic acid] | 23.8 nM | 1.27 nM
8 | Cc1c(NC(=O)c2cc(C3CC3)c(CNC3CC3)cn2)cccc1-c1cccc(NC(=O)c2cc(C3CC3)c(CN3CCCC[C@H]3C(=O)O)cn2)c1C [Example 10, (S)-1-((4-cyclopropyl-6-((3′-(4-cyclopropyl-5-((cyclopropylamino)methyl)picolinamido)-2,2′-dimethyl-[1,1′-biphenyl]-3-yl)carbamoyl)pyridin-3-yl)methyl) piperidine-2-carboxylic acid] | 120 nM | 3.38 nM
9 | Cc1c(NC(=O)c2cc(C3CC3)c(CNC3CCCC3)cn2)cccc1-c1cccc(NC(=O)c2cc(C3CC3)c(CN3CCCC[C@H]3C(=O)O)cn2)c1C [Example 11, (S)-1-((4-cyclopropyl-6-((3′-(4-cyclopropyl-5-((cyclopentylamino)methyl)picolinamido)-2,2′-dimethyl-[1,1′-biphenyl]-3-yl)carbamoyl)pyridin-3-yl)methyl) piperidine-2-carboxylic acid] | 14.5 nM | 3.19 nM

Other lines, results leading:

Row | EC50 [1] | IC50 [2] | SMILES
10 | 115 nM | 1.61 nM | CCOC(=O)[C@@H](CO)NCc1cnc(C(=O)Nc2cccc(-c3cccc(NC(=O)c4cc(C5CC5)c(CN5CCCC[C@H]5C(=O)O)cn4)c3C)c2C)cc1C1CC1 [Example 29, (S)-1-((4-cyclopropyl-6-((3′-(4-cyclopropyl-5-((((R)-1-ethoxy-3-hydroxy-1-oxopropan-2-yl)amino)methyl)picolinamido)-2,2′-dimethyl-[1,1′-biphenyl]-3-yl)carbamoyl)pyridin-3-yl)methyl)piperidine-2-carboxylic acid]
11 | 62.3 nM | 0.91 nM | Cc1c(NC(=O)c2cc(C3CC3)c(CN[C@H](CO)C(=O)O)cn2)cccc1-c1cccc(NC(=O)c2cc(C3CC3)c(CN3CCC[C@H]3CO)cn2)c1C [Example 54]
12 | 87.1 nM | 2.05 nM | Cc1c(NC(=O)c2cc(C3CC3)c(CNC3CCOCC3)cn2)cccc1-c1cccc(NC(=O)c2cc(C3CC3)c(CN[C@H](CO)C(=O)O)cn2)c1C [Example 51, ((4-cyclopropyl-6-((3′-(4-cyclopropyl-5-(((tetrahydro-2H-pyran-4-yl)amino)methyl)picolinamido)-2,2′-dimethyl-[1,1′-biphenyl]-3-yl)carbamoyl)pyridin-3-yl)methyl)-D-serine]
13 | 258 nM | 5.77 nM | CCOC(=O)[C@@H](CO)NCc1cnc(C(=O)Nc2cccc(-c3cccc(NC(=O)c4cc(C5CC5)c(CN5CC[C@@H](O)C5)cn4)c3C)c2C)cc1C1CC1 [Example 53-1, Ethyl ((4-cyclopropyl-6-((3′-(4-cyclopropyl-5-(((R)-3-hydroxypyrrolidin-1-yl)methyl)picolinamido)-2,2′-dimethyl-[1,1′-biphenyl]-3-yl)carbamoyl)pyridin-3-yl)methyl)-D-serinate]
14 | 37.3 nM | 0.67 nM | Cc1c(NC(=O)c2cc(C3CC3)c(CN[C@H](C)CO)cn2)cccc1-c1cccc(NC(=O)c2cc(C3CC3)c(CN[C@H](CO)C(=O)O)cn2)c1C [Example 38, ((4-cyclopropyl-6-((3′-(4-cyclopropyl-5-((((R)-1-hydroxypropan-2-yl)amino)methyl)picolinamido)-2,2-dimethyl-[1,1′-biphenyl]-3-yl)carbamoyl)pyridin-3-yl)methyl)-D-serine]
15 | 14.9 nM | 1.07 nM | Cc1c(NC(=O)c2cc(C3CC3)c(CNC(C)CO)cn2)cccc1-c1cccc(NC(=O)c2cc(C3CC3)c(CN3CCCC[C@H]3C(=O)O)cn2)c1C (stereo in doubt) [Example 3, (S)-1-((4-cyclopropyl-6-((3′-(4-cyclopropyl-5-((((R)-1-hydroxypropan-2-yl)amino)methyl)picolinamido)-2,2′-dimethyl-[1,1′-biphenyl]-3-yl)carbamoyl)pyridin-3-yl)methyl)piperidine-2-carboxylic acid]
16 | 28.6 nM | 1.95 nM | Cc1c(NC(=O)c2cc(C3CC3)c(CNCCO)cn2)cccc1-c1cccc(NC(=O)c2cc(C3CC3)c(CN[C@H](CO)C(=O)O)cn2)c1C [Example 35, ((4-cyclopropyl-6-((3′-(4-cyclopropyl-5-(((2-hydroxyethyl)amino)methyl)picolinamido)-2,2′-dimethyl-[1,1′-biphenyl]-3-yl)carbamoyl)pyridin-3-yl)methyl)-D-serine]
